Key:
Assay type in all cases: biochemical
[1] = target: T1, FXIIa (Homo sapiens, UniProt P00748); experiment: Determination of Factor XIIa inhibition (chromogenic substrate S-2302); conditions: human FXIIa alpha, Ki category
T1 construct: FXIIa alpha
T1 sequence (P00748 373-615 limits assumed): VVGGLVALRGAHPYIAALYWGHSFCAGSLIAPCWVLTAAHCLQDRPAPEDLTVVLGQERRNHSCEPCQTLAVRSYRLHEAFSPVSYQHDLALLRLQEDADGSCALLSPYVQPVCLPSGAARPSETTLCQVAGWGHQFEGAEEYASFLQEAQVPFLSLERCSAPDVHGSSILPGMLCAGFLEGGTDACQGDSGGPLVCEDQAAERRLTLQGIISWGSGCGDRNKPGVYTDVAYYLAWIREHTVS
T1 sequence (P00748 20-372 partner limits assumed): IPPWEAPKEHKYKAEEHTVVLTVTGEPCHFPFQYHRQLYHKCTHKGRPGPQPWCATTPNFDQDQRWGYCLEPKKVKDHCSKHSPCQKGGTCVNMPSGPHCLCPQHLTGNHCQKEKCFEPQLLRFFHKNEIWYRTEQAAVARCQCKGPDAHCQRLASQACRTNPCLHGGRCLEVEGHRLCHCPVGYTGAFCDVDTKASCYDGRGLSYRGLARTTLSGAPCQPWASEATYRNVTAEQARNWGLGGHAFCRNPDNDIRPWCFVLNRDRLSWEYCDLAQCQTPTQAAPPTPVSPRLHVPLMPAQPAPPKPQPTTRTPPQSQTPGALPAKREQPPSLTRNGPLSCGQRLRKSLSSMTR
Method in brief: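 Compound preincubated with 10 nM FXIIa for 10 min at 37° C in 50 mM Tris, 137 mM NaCl, pH 7.4, 5% DMSO, top concentration 500 μM; S-2302 added at Km. pNA release followed at 405 nm for 3 h; IC50 from initial rates, converted to Ki via Ki = IC50/(1+[S]/Km).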

[2] = target: FXa (Homo sapiens, UniProt P00742); experiment: Determination of selectivity: FXa inhibition (chromogenic substrate S2765); conditions: fold selectivity for FXIIa over FXa (human); category
FXa, sequence (P00742 235-488 limits assumed): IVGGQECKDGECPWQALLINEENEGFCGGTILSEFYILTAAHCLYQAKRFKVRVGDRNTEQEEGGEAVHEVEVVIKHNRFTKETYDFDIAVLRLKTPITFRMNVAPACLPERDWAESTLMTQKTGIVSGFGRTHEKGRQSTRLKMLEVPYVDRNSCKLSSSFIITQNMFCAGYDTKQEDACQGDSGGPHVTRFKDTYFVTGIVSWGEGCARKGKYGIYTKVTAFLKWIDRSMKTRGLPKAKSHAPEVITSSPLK
FXa, sequence (P00742 41-179 partner limits assumed): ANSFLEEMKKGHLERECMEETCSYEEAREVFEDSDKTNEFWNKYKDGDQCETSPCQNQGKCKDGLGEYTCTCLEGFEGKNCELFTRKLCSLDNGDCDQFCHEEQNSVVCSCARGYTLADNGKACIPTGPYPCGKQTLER
Method in brief: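 FXa (5 nM) preincubated with increasing compound (top 500 μM) for 10 mins at 37° C in 50 mM Tris, 137 mM NaCl pH 7.4, 5% DMSO, then S2765 added at its KM. Absorbance at 405 nm followed kinetically for 3 hours; IC50 from initial rates, converted to Ki by Cheng-Prusoff.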

[3] = target: T2, thrombin (Homo sapiens, UniProt P00734); experiment: Determination of selectivity: thrombin inhibition (chromogenic substrate GPR); conditions: fold selectivity for FXIIa over thrombin (human); category
T2 construct: FXa (5 nM) and thrombin (5 nM)
Method in brief: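 Thrombin (5 nM) preincubated with increasing compound concentrations (top 500 μM, 5% DMSO) 10 min at 37 °C in 50 mM Tris, 137 mM NaCl pH 7.4, then GPR chromogenic substrate at its KM. pNA release read kinetically at 405 nm for 3 h at 37 °C. IC50 from initial rates, converted to Ki via Cheng–Prusoff.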

Structure (SMILES) | Ki [1] [nM] | FXa (human)/FXIIa alpha (human) [2] | Thrombin (human)/FXIIa alpha (human) [3]
Cc1ccc(C[C@@H]2C[C@@H](C(=O)NCc3ccc4c(cnn4C)c3)N(C(=O)[C@@H]3NCCC[C@@H]3C(=O)N(C)C3CCN(C)C3)C2)cc1 (stereo partly drawn) [Example M06034, (2R,3S)-N-methyl-2-((2S,4R)-2-(((1-methyl-1H-indazol-5-yl)methyl)carbamoyl)-4-(4-methylbenzyl)pyrrolidine-1-carbonyl)-N-(1-methylpyrrolidin-3-yl)piperidine-3-carboxamide] | < 200 | ∘∘∘ | +++ (fold selectivity values greater than 100)
Cc1ccc(C[C@@H]2C[C@@H](C(=O)NCc3ccc4c(cnn4C)c3)N(C(=O)[C@@H]3NCCC[C@@H]3C(=O)N(C)C3CCN(CCF)CC3)C2)cc1 [Example M06083, (2R,3S)—N-[1-(2-fluoroethyl)-4-piperidyl]-N-methyl-2-[(2S,4R)-2-[(1-methylindazol-5-yl)methylcarbamoyl]-4-(p-tolylmethyl)pyrrolidine-1-carbonyl]piperidine-3-carboxamide] | < 200 | ∘∘∘ | +++ (fold selectivity values greater than 100)
Cc1nnc2cc(CNC(=O)[C@@H]3C[C@@H](Cc4ccc(C5CC5)cc4)CN3C(=O)[C@@H]3NCCC[C@@H]3C(=O)N3CCCC3)ccn12 [Example M06006, (2S,4R)-4-(4-cyclopropylbenzyl)-N-((3-methyl-[1,2,4]triazolo[4,3-a]pyridin-7-yl)methyl)-1-((2R,3S)-3-(pyrrolidine-1-carbonyl)piperidine-2-carbonyl)pyrrolidine-2-carboxamide] | 200 to 800 | ∘∘∘ | +++ (fold selectivity values greater than 100)
CCO[C@H]1CCN(C(=O)[C@H]2CCCN[C@H]2C(=O)N2C[C@H](Cc3ccc(C)cc3)C[C@H]2C(=O)NCc2ccc3c(cnn3C)c2)C1 [Example M05853, (2S,4R)-1-((2R,3S)-3-((S)-3-ethoxypyrrolidine-1-carbonyl)piperidine-2-carbonyl)-N-((1-methyl-1H-indazol-5-yl)methyl)-4-(4-methylbenzyl)pyrrolidine-2-carboxamide] | < 200 | ∘∘∘ | +++ (fold selectivity values greater than 100)
COCCN1CCC(N(C)C(=O)[C@H]2CCCN[C@H]2C(=O)N2C[C@H](Cc3ccc(C)cc3)C[C@H]2C(=O)NCc2ccc3c(cnn3C)c2)CC1 [Example M06084, (2R,3S)-N-(1-(2-methoxyethyl)piperidin-4-yl)-N-methyl-2-((2S,4R)-2-(((1-methyl-1H-indazol-5-yl)methyl)carbamoyl)-4-(4-methylbenzyl)pyrrolidine-1-carbonyl)piperidine-3-carboxamide] | < 200 | ∘∘∘ | +++ (fold selectivity values greater than 100)
Cc1ccc(C[C@@H]2C[C@@H](C(=O)NCc3ccc4c(cnn4C)c3)N(C(=O)[C@@H]3NCCC[C@@H]3C(=O)N(C)CCN(C)C)C2)cc1 (single isomer, unassigned) [Example M05902] | < 200 | ∘∘∘ | +++ (fold selectivity values greater than 100)
Cc1ccc(C[C@@H]2C[C@@H](C(=O)NCc3ccc4c(cnn4C)c3)N(C(=O)[C@@H]3NCCC[C@@H]3C(=O)N3CCCN(C)CC3)C2)cc1 [Example M05840, (2S,4R)-1-((2R,3S)-3-(4-methyl-1,4-diazepane-1-carbonyl)piperidine-2-carbonyl)-N-((1-methyl-1H-indazol-5-yl)methyl)-4-(4-methylbenzyl)pyrrolidine-2-carboxamide] | < 200 | ∘∘∘ | +++ (fold selectivity values greater than 100)
Cc1ccc(C[C@@H]2C[C@@H](C(=O)NCc3ccc4c(cnn4C)c3)N(C(=O)[C@@H]3NCCC[C@@H]3C(=O)N(C)CCN(C)C3CC3)C2)cc1 [Example M06049, (2R,3S)-N-[2-[cyclopropyl(methyl)amino]ethyl]N-methyl-2-[(2S,4R)-2-[(1-methylindazol-5-yl)methylcarbamoyl]-4-(p-tolylmethyl)pyrrolidine-1-carbonyl]piperidine-3-carboxamide] | < 200 | ∘∘∘ | +++ (fold selectivity values greater than 100)
Cc1ccc(C[C@@H]2C[C@@H](C(=O)NCc3cnc4[nH]cc(Cl)c4c3)N(C(=O)[C@@H]3NCCC[C@@H]3C(=O)N3CCCC3)C2)cc1 [Example M05899, (2S,4R)-N-((3-chloro-1H-pyrrolo[2,3-b]pyridin-5-yl)methyl)-4-(4-methylbenzyl)-1-((2R,3S)-3-(pyrrolidine-1-carbonyl)piperidine-2-carbonyl)pyrrolidine-2-carboxamide] | < 200 | ∘∘ | + (fold selectivity values less than 10 (e.g. a fold selectivity value of less than 10 and greater than 1))
Cc1ccc(C[C@@H]2C[C@@H](C(=O)NCc3ccc4c(cnn4C)c3)N(C(=O)[C@@H]3NCCC[C@@H]3C(=O)N3CCC[C@@H]3C(F)(F)F)C2)cc1 [Example M05747, (2S,4R)-N-((1-methyl-1H-indazol-5-yl)methyl)-4-(4-methylbenzyl)-1-((2R,3S)-3-((R)-2-(trifluoromethyl)pyrrolidine-1-carbonyl)piperidine-2-carbonyl)pyrrolidine-2-carboxamide] | < 200 | ∘∘∘ | +++ (fold selectivity values greater than 100)
Cc1ccc(C[C@@H]2C[C@@H](C(=O)NCc3ccn4c(C)nnc4c3)N(C(=O)[C@@H]3NCCC[C@@H]3C(=O)N3CCCC3)C2)cc1 [Example M05855, (2S,4R)-N-((3-methyl-[1,2,4]triazolo[4,3-a]pyridin-7-yl)methyl)-4-(4-methylbenzyl)-1-((2R,3S)-3-(pyrrolidine-1-carbonyl)piperidine-2-carbonyl)pyrrolidine-2-carboxamide] | 200 to 800 | ∘∘∘ | +++ (fold selectivity values greater than 100)
Cc1ccc(C[C@@H]2C[C@@H](C(=O)NCc3ccc4c(cnn4C)c3)N(C(=O)[C@@H]3NCCC[C@@H]3C(=O)N(C)C3CCN(C)CC3)C2)cc1 [Example M06061, (2R,3S)-N-methyl-2-((2S,4R)-2-(((1-methyl-1H-indazol-5-yl)methyl)carbamoyl)-4-(4-methylbenzyl)pyrrolidine-1-carbonyl)-N-(1-methylpiperidin-4-yl)piperidine-3-carboxamide] | < 200 | ∘∘∘ | +++ (fold selectivity values greater than 100)
Cc1ccc(C[C@@H]2C[C@@H](C(=O)NCc3ccc4c(cnn4C)c3)N(C(=O)[C@@H]3NCCC[C@@H]3C(=O)N3CCC(F)(F)C3)C2)cc1 [Example M05787, (2S,4R)-1-((2R,3S)-3-(3,3-difluoropyrrolidine-1-carbonyl)piperidine-2-carbonyl)-N-((1-methyl-1H-indazol-5-yl)methyl)-4-(4-methylbenzyl)pyrrolidine-2-carboxamide] | 200 to 800 | ∘∘∘ | +++ (fold selectivity values greater than 100)
Cn1nnc2cc(CNC(=O)[C@@H]3C[C@@H](Cc4ccc(C(F)(F)F)nc4)CN3C(=O)[C@@H]3NCCC[C@@H]3C(=O)N3CCCC3)ccc21 [Example M05863, (2S,4R)-N-((1-methyl-1H-benzo[d][1,2,3]triazol-5-yl)methyl)-1-((2R,3S)-3-(pyrrolidine-1-carbonyl)piperidine-2-carbonyl)-4-((6-(trifluoromethyl)pyridin-3-yl)methyl)pyrrolidine-2-carboxamide] | < 200 | ∘∘∘ | +++ (fold selectivity values greater than 100)

From patent US20240294498A1, “FACTOR XIIA INHIBITORS” (Lunac Therapeutics Ltd, priority 2021, published 2024)
